In patent US20260262643A1, “HERBICIDAL BENZOXAZINES” (FMC CORPORATION, priority 2022, published 2026):
Read-outs that look alike come from different tables or passages of the source.

Key:
[1] = system: pigweed, palmer; experiment: Test A preemergence; assay type: in vivo, Amaranthus palmeri; details: Amaranthus palmeri, pre-emergence, 240 h, read-out: Plant response rating, Pigweed, Palmer; for pest or weed control at 125 g/ha: 125 g ai/ha, visual injury after 10 days, 0 to 100 scale, 0 is no effect, 100 is complete control; for pest or weed control at 500 g/ha: 500 g ai/ha, 0 to 100 scale (0 no effect, 100 complete control), 10 days
Summary of the method: (§1)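 Weeds and crops in loam–sand blend were sprayed preemergence onto soil or postemergence at 2–10 cm (one- to two-leaf stage). Test chemicals were in a non-phytotoxic solvent with surfactant. After 10 days in the greenhouse, injury was rated visually against untreated controls on a 0 (no effect) to 100 (complete control) scale.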

[2] = system: blackgrass; experiment: Test A postemergence; assay type: in vivo, Alopecurus myosuroides; details: Alopecurus myosuroides, post-emergence, 240 h; for pest or weed control at 125 g/ha: 125 g ai/ha; for pest or weed control at 500 g/ha: 500 g ai/ha
Summary of the method: as §1

[3] = system: ragweed; experiment: Test A postemergence; assay type: in vivo, Ambrosia artemisiifolia; details: Ambrosia artemisiifolia, post-emergence, 240 h; for pest or weed control at 125 g/ha: 125 g ai/ha; for pest or weed control at 500 g/ha: 500 g ai/ha
Summary of the method: as §1

[4] = system: ryegrass, Italian; experiment: Test A preemergence; assay type: in vivo, Lolium multiflorum; details: Lolium multiflorum, pre-emergence, 240 h, read-out: Plant response rating, Ryegrass, Italian; for pest or weed control at 125 g/ha: 125 g ai/ha, visual injury after 10 days, 0 to 100 scale, 0 is no effect, 100 is complete control; for pest or weed control at 500 g/ha: 500 g ai/ha, 0 to 100 scale (0 no effect, 100 complete control), 10 days
Summary of the method: as §1

[5] = system: ducksalad; experiment: Test B flooded paddy test; assay type: in vivo, Heteranthera limosa; details: Heteranthera limosa, 312 h, 250 g ai/ha, Flood, 13 days, 0 to 100 scale (0 no effect, 100 complete control); read-out: Plant response rating, Ducksalad
Summary of the method: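 Each species was raised to the 2-leaf stage. At treatment, each pot received floodwater 3 cm deep, with the chemical delivered into the water. Greenhouse holding followed for 13 days, then percent control was estimated visually versus untreated pots.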

[6] = system: blackgrass; experiment: Test A preemergence; assay type: in vivo, Alopecurus myosuroides; details: Alopecurus myosuroides, pre-emergence, 240 h, read-out: Plant response rating, Blackgrass; for pest or weed control at 125 g/ha: 125 g ai/ha, visual injury after 10 days, 0 to 100 scale, 0 is no effect, 100 is complete control; for pest or weed control at 500 g/ha: 500 g ai/ha, 0 to 100 scale (0 no effect, 100 complete control), 10 days
Summary of the method: as §1

[7] = system: goosegrass; experiment: Test A postemergence; assay type: in vivo, Eleusine indica; details: Eleusine indica, post-emergence, 240 h; for pest or weed control at 125 g/ha: 125 g ai/ha; for pest or weed control at 500 g/ha: 500 g ai/ha
Summary of the method: as §1

[8] = system: foxtail, giant; experiment: Test A postemergence; assay type: in vivo, Setaria faberi; details: Setaria faberi, post-emergence, 240 h; for pest or weed control at 125 g/ha: 125 g ai/ha; for pest or weed control at 500 g/ha: 500 g ai/ha
Summary of the method: as §1

[9] = system: wheat; experiment: Test A postemergence; assay type: in vivo, Triticum aestivum; details: Triticum aestivum, post-emergence, 240 h; for plant injury at 125 g/ha: 125 g ai/ha; for plant injury at 500 g/ha: 500 g ai/ha
Summary of the method: as §1

[10] = system: corn; experiment: Test A postemergence; assay type: in vivo, Zea mays; details: Zea mays, post-emergence, 240 h; for Corn plant response rating (crop injury, 0 = no effect, 100 = complete kill) at 500 g/ha: 500 g ai/ha
Summary of the method: as §1

[11] = system: ragweed; experiment: Test A preemergence; assay type: in vivo, Ambrosia artemisiifolia; details: Ambrosia artemisiifolia, pre-emergence, 240 h, read-out: Plant response rating, Ragweed; for pest or weed control at 125 g/ha: 125 g ai/ha, visual injury after 10 days, 0 to 100 scale, 0 is no effect, 100 is complete control; for pest or weed control at 500 g/ha: 500 g ai/ha, 0 to 100 scale (0 no effect, 100 complete control), 10 days
Summary of the method: as §1

[12] = system: soybean; experiment: Test A preemergence; assay type: in vivo, Glycine max; details: Glycine max, pre-emergence, 240 h, read-out: Plant response rating, Soybean; for plant injury at 125 g/ha: 125 g ai/ha, visual injury after 10 days, 0 to 100 scale, 0 is no effect, 100 is complete control; for plant injury at 500 g/ha: 500 g ai/ha, 0 to 100 scale (0 no effect, 100 complete control), 10 days
Summary of the method: as §1

[13] = system: pigweed, palmer; experiment: Test A postemergence; assay type: in vivo, Amaranthus palmeri; details: Amaranthus palmeri, post-emergence, 240 h; for pest or weed control at 125 g/ha: 125 g ai/ha; for pest or weed control at 500 g/ha: 500 g ai/ha
Summary of the method: as §1

[14] = system: oat, wild; experiment: Test A postemergence; assay type: in vivo, Avena fatua; details: Avena fatua, post-emergence, 240 h; for pest or weed control at 125 g/ha: 125 g ai/ha; for pest or weed control at 500 g/ha: 500 g ai/ha
Summary of the method: as §1

[15] = postemergence, 10 days, visual injury, 0 to 100 scale (0 no effect, 100 complete control), read-out: Plant response rating, Blackgrass
[16] = postemergence, 10 days, visual injury, 0 to 100 scale (0 no effect, 100 complete control), read-out: Plant response rating, Ragweed
[17] = postemergence, 10 days, visual injury, 0 to 100 scale (0 no effect, 100 complete control), read-out: Plant response rating, Goosegrass
[18] = postemergence, 10 days, visual injury, 0 to 100 scale (0 no effect, 100 complete control), read-out: Plant response rating, Foxtail, Giant
[19] = postemergence, 10 days, visual injury, 0 to 100 scale (0 no effect, 100 complete control), read-out: Plant response rating, Wheat
[20] = postemergence, 10 days, visual injury, 0 to 100 scale (0 no effect, 100 complete control), read-out: Plant response rating, Pigweed, Palmer
[21] = postemergence, 10 days, visual injury, 0 to 100 scale (0 no effect, 100 complete control), read-out: Plant response rating, Oat, Wild

For `CCc1ncn(-c2ccc(OC)c(C(=O)N3C[C@H](C)Oc4c(Cl)cccc43)c2)n1` [Compound 88, [(2S)-8-Chloro-2,3-dihydro-2-methyl-4H-1,4-benzoxazin-4-yl][5-(3-ethyl-1H-1,2,4-triazol-1-yl)-2-methoxyphenyl]methanone], the pest or weed control at 125 g/ha [1] was 100%, the pest or weed control at 500 g/ha [1] was 100% and the pest or weed control at 125 g/ha ([2]; postemergence, 10 days, 0 to 100 scale (0 no effect, 100 complete control), read-out: Blackgrass plant response rating) was 60%. For the same molecule, the pest or weed control at 500 g/ha [2, 15] was 90%, the pest or weed control at 125 g/ha ([3]; postemergence, 10 days, 0 to 100 scale (0 no effect, 100 complete control), read-out: Ragweed plant response rating) was 70% and the pest or weed control at 500 g/ha [3, 16] was 100%. The pest or weed control at 125 g/ha [4] was 100%, the pest or weed control at 500 g/ha [4] was 100% and the pest or weed control at 250 g/ha [5] was 55%. It also gave a pest or weed control at 125 g/ha [6] of 80%, a pest or weed control at 500 g/ha [6] of 80% and a pest or weed control at 125 g/ha ([7]; postemergence, 10 days, 0 to 100 scale (0 no effect, 100 complete control), read-out: Goosegrass plant response rating) of 100%. The pest or weed control at 500 g/ha [7, 17] was 100%, the pest or weed control at 125 g/ha ([8]; postemergence, 10 days, 0 to 100 scale (0 no effect, 100 complete control), read-out: Foxtail, Giant plant response rating) was 90% and the pest or weed control at 500 g/ha [8, 18] was 90%. It also gave a plant injury at 125 g/ha ([9]; postemergence, 10 days, 0 to 100 scale (0 no effect, 100 complete control), read-out: Wheat plant response rating) of 40%, a plant injury at 500 g/ha [9, 19] of 90% and a plant injury at 125 g/ha ([10]; 125 g ai/ha, postemergence, 10 days, 0 to 100 scale (0 no effect, 100 complete control), read-out: Corn plant response rating) of 90%. It also gave a Corn plant response rating (crop injury, 0 = no effect, 100 = complete kill) at 500 g/ha ([10]; postemergence, 10 days, visual injury, 0 to 100 scale (0 no effect, 100 complete control)) of 90%, a pest or weed control at 125 g/ha [11] of 60% and a pest or weed control at 500 g/ha [11] of 100%. For the same molecule, the plant injury at 125 g/ha [12] was 50%, the plant injury at 500 g/ha [12] was 100% and the pest or weed control at 125 g/ha ([13]; postemergence, 10 days, 0 to 100 scale (0 no effect, 100 complete control), read-out: Pigweed, Palmer plant response rating) was 90%. The pest or weed control at 500 g/ha [13, 20] was 90%, the pest or weed control at 125 g/ha ([14]; postemergence, 10 days, 0 to 100 scale (0 no effect, 100 complete control), read-out: Oat, Wild plant response rating) was 90% and the pest or weed control at 500 g/ha [14, 21] was 90%.
With `C#Cc1ncn(-c2cccc(C(=O)N3C[C@H](C)Oc4c(C)cccc43)c2)n1` [Compound 64, [(2S)-2,3-Dihydro-2,8-dimethyl-4H-1,4-benzoxazin-4-yl][3-(3-ethynyl-1H-1,2,4-triazol-1-yl)phenyl]methanone] the pest or weed control at 125 g/ha [1] was 40%, the pest or weed control at 500 g/ha [1] was 100% and the pest or weed control at 125 g/ha [2, 15] was 40%. For the same molecule, the pest or weed control at 500 g/ha ([2]; Postemergence, 0 to 100 scale, read-out: Plant response rating, Blackgrass) was 70%, the pest or weed control at 125 g/ha [3, 16] was 0% and the pest or weed control at 500 g/ha ([3]; Postemergence, 0 to 100 scale, read-out: Plant response rating, Ragweed) was 40%. For the same molecule, the pest or weed control at 125 g/ha [4] was 90%, the pest or weed control at 500 g/ha [4] was 100% and the pest or weed control at 250 g/ha [5] was 25%. For the same molecule, the pest or weed control at 125 g/ha [6] was 80%, the pest or weed control at 500 g/ha [6] was 90% and the pest or weed control at 125 g/ha [7, 17] was 10%. The pest or weed control at 500 g/ha ([7]; Postemergence, 0 to 100 scale, read-out: Plant response rating, Goosegrass) was 30%, the pest or weed control at 125 g/ha [8, 18] was 20% and the pest or weed control at 500 g/ha ([8]; Postemergence, 0 to 100 scale, read-out: Plant response rating, Foxtail, Giant) was 90%. It also gave a plant injury at 125 g/ha [9, 19] of 10%, a plant injury at 500 g/ha ([9]; Postemergence, 0 to 100 scale, read-out: Plant response rating, Wheat) of 40% and a Corn plant response rating (crop injury, 0 = no effect, 100 = complete kill) at 125 g/ha ([10]; 125 g ai/ha, postemergence, 10 days, visual injury, 0 to 100 scale (0 no effect, 100 complete control)) of 10%. The Corn plant response rating (crop injury, 0 = no effect, 100 = complete kill) at 500 g/ha ([10]; Postemergence, 0 to 100 scale) was 80%, the pest or weed control at 125 g/ha [11] was 0% and the pest or weed control at 500 g/ha [11] was 0%. For the same molecule, the plant injury at 125 g/ha [12] was 20%, the plant injury at 500 g/ha [12] was 30% and the pest or weed control at 125 g/ha [13, 20] was 30%. The pest or weed control at 500 g/ha ([13]; Postemergence, 0 to 100 scale, read-out: Plant response rating, Pigweed, Palmer) was 50%, the pest or weed control at 125 g/ha [14, 21] was 50% and the pest or weed control at 500 g/ha ([14]; Postemergence, 0 to 100 scale, read-out: Plant response rating, Oat, Wild) was 70%.
